What all share (assay type): in vivo
For test [1], the system named is housefly (Musca domestica). The experiment in a line: Test Example 9: treated filter paper with sucrose bait, housefly, 500 ppm. Particulars: 0.7 mL on filter paper, female adult housefly, after 24 hours. Here is the method: Each formulation comprising the Present compound 5, 17, 25, 26, 27, 31, 35, 36, 37 or 38, or the N-oxide 3, the N-oxide 4, or the N-oxide 5 prepared by the process according to the Formulation example 5 was diluted with water until the concentration of the active ingredient reached 500 ppm to prepare a test chemical solution.
The bottom of the polyethylene cup having 5.5 cm diameter was matted with the same size of a filter paper, and 0.7 mL of the test chemical solution was added dropwise to the filter paper, and 30 mg sucrose as bait was placed in the cup uniformly. Ten (10) heads of female adult housefly (Musca domestica) were released into the polyethylene cup, and the cup was covered with a lid. After 24 hours, the life and death of housefly was investigated, and the number of dead insects was counted, and the mortality of insects was calculated by the following equation. Mortality of insects (%)=(the number of dead insects/the number of test insects)×100

Test [2] deals with cucurbit leaf beetle (Aulacophora femoralis). Put plainly: Test Example 11: spray on cucumber seedling, cucurbit leaf beetle larvae, 50 ppm. The note with it: 120 h, Formulation example 1, spray 30 mL/cup on cucumber, second instar larvae, 25° C., 5 days, read-out: morality of insects. As to the method: Meanwhile, cucumber seedling (on the developmental stage of the third true leaf) was planted in a polyethylene cup, and each of the test chemical solution was sprayed into the seedling in a ratio of 30 mL/cup. After the test chemical solution was dried, the second leaf thereof was cut out, and then installed into a 200 mL cup. Ten (10) heads of the second instar larvae of cucurbit leaf beetle (Aulacophora femoralis) were released into the cup, and the cup was covered with a lid. After the cup was stored at 25° C. for 5 days, the number of the dead insects was counted, and the mortality of insects was calculated by the following equation. Morality (%)−{the number of the dead insects/the number of the test isects}×100

Test [3] has as its system cotton aphid (Aphis gossypii). Put plainly: Test Example 2: foliar spray on cucumber seedling infested with cotton aphid, 200 ppm. Particulars: 144 h, spray 20 mL/seedling on cucumber, 6 days after spraying, read-out: controlling value.
Test [4] concerns cotton aphid (Aphis gossypii). Put plainly: Test Example 1: foliar spray on cucumber seedling infested with cotton aphid, 500 ppm. Particulars: 144 h, spray 20 mL/seedling on cucumber, 6 days after spraying, read-out: controlling value.
Test [5] has as its system house mosquito (Culex pipiens pallens). The experiment in a line: Test Example 10: house mosquito larvae in treated water. Particulars: 0.7 mL of 500 ppm solution in 100 ml water (3.5 ppm), last instar larvae, after 1 day. Here is the method: The formulation comprising the Present compounds 4 prepared by the process according to the Formulation example 5 was diluted with water until the concentration of the active ingredient reached 500 ppm to prepare a test chemical solution.
Zero point seven(0.7) mL of the testg chemical solution was added to ion-changed water 100 ml (the concentrataion of the active ingredient was 3.5 ppm). Twently (20) heads of the last instar larvae of […] house mosquito (Culex pipiens pallens) were released […], and after 1 day, the life and death of house mosquito was investigated, and the number of dead insects was counted, and the mortality of insects was calculated by the following equation. Mortality of insects (%)=(the number of the dead insects/the number of the test insects)×100

Test [6] relates to brown planthopper (Nilaparvata lugens). The experiment in a line: Test Example 5: spray on rice seedling, brown planthopper, 200 ppm. The note with it: 144 h, 10 mL spray on rice seedling, 3rd to 4th instar larvae, after 6 days, 25° C., read-out: controlling value.
Test [7] deals with cabbage moth (Plutella xylostella). The experiment in a line: Test Example 7: spray on cabbage seedling, cabbage moth larvae, 500 ppm. Particulars: 120 h, spray 20 mL/cup on cabbage, 2nd instar larvae, 25° C., 5 days, read-out: morality of insects. Here is the method: (§1) Meanwhile, cabbage seedling (on the developmental stage of the third true leaf) was planted in a polyethylene cup, and each of the test chemical solution was sprayed into the cabbage seedling in a ratio of 20 mL/cup. After the test chemical solution was dried, the stem and leaf thereof was cut out and then installed into a 50 mL cup. Five (5) heads of 2nd instar larvae of cabbage moth (Plutella xylostella) were released into the cup, and the cup was covered with a lid. After the cup was stored at 25° C. for 5 days, the number of the dead insects was counted, and the mortality of insects was calculated by the following equation. Morality (%)=([…]the number of the dead insects/the number of the test insects)×100

The test system is the same in test [8]. Put plainly: Test Example 8: spray on cabbage seedling, cabbage moth larvae, 200 ppm. Particulars: 120 h, spray 20 mL/cup on cabbage, 2nd instar larvae, 25° C., 5 days, read-out: morality of insects. As to the method: as §1, with “of the surviving insects/the number” for “of the dead insects/the number”

Experimental findings from US9924719B2, “Pyridazine compound” (Sumitomo Chemical Company, Limited, priority 2014, dated 2018) are described below.

`CCS(=O)(=O)c1cccnc1-c1n[n+]([O-])c(OCC(F)(F)C(F)(F)F)cc1C` [N-oxide 3] returned a morality of insects in test [1] of 100%.
`CCS(=O)(=O)c1cc(C(F)(F)F)cnc1-c1ccc(OCC(F)(F)C(F)(F)F)[n+]([O-])n1` [N-oxide 4] yielded a morality of insects in test [1] of 100%.
Same read-out and setting: for `CCS(=O)(=O)c1cc(C(F)(F)F)cnc1-c1ccc(OCC(F)(F)C(F)F)[n+]([O-])n1` [N-oxide 5] the value was 100%.
As to `CCS(=O)(=O)c1cc(C(F)(F)F)ccc1-c1ccc(OCC(F)(F)F)nn1` [Present compound 1], the pest or weed control at 50 ppm in test [2] is ≥ 85%.
As for `CCS(=O)(=O)c1cccnc1-c1ccc(OCC(Cl)(Cl)Cl)nn1` [Present compound 4], the pest or weed control at 200 ppm in test [3] is ≥ 90%. Moreover, in test [2], the pest or weed control at 50 ppm is ≥ 85%. Further, in test [4], the pest or weed control at 500 ppm is ≥ 90%. Moreover, the insect mortality in test [5] is ≥ 95%.
Compound `CCS(=O)(=O)c1cccnc1-c1ccc(OCC(F)(F)F)nn1` [Present compound 5] came in with a morality of insects in test [1] of 100%.
In the case of `CCS(=O)(=O)c1cccnc1-c1ccc(OCC(F)(F)C(F)F)nn1` [Present compound 8], the pest or weed control at 200 ppm in test [6] was ≥ 90%; in test [3] it was ≥ 90%; in test [8], ≥ 80%. In addition, the pest or weed control at 50 ppm in test [2] was ≥ 85%. Further, the pest or weed control at 500 ppm in test [7] is ≥ 80%; in test [4], ≥ 90%.
Compound `CCS(=O)(=O)c1cccnc1-c1ccc(OCC(F)(F)C(F)(F)C(F)(F)F)nn1` [Present compound 17] had a morality of insects in test [1] of 100%.
`CCS(=O)(=O)c1cccnc1-c1ccc(OCC(C)(C(F)(F)F)C(F)(F)F)nn1` [Present compound 25]: the morality of insects in test [1] is reported as 100%.
The same measure, in the same setting: for `CCC(Oc1ccc(-c2ncccc2S(=O)(=O)CC)nn1)C(F)(F)F` (stereo not drawn) [Present compound 26] the value was 100%.
In the case of `CCSc1cccnc1-c1ccc(OCC(F)(F)C(F)(F)F)nn1` [Present compound 27], the pest or weed control at 200 ppm in test [6] was ≥ 90%; in test [3], ≥ 90%; in test [8], ≥ 80%. The pest or weed control at 50 ppm in test [2] was ≥ 85%. The pest or weed control at 500 ppm is ≥ 80% in test [7] and ≥ 90% in test [4]. The morality of insects in test [1] amounted to 100%.
Regarding `CCS(=O)(=O)c1cc(C(F)(F)F)cnc1-c1ccc(OCC(F)(F)C(F)(F)F)nn1` [Present compound 28], the pest or weed control at 200 ppm in test [6] is ≥ 90%; in test [3], ≥ 90%; in test [8], ≥ 80%. Also, in test [2], the pest or weed control at 50 ppm was ≥ 85%.
`CC[S+]([O-])c1cccnc1-c1ccc(OCC(F)(F)C(F)(F)F)nn1` (stereo not drawn) [Present compound 29]: the pest or weed control at 200 ppm in test [6] and in test [3] was ≥ 90% throughout. In addition, the pest or weed control at 50 ppm in test [2] was ≥ 85%. Further, the pest or weed control at 500 ppm in test [4] was ≥ 90%.
As to `CCS(=O)(=O)c1cccnc1-c1nnc(OCC(F)(F)C(F)(F)F)cc1C` [Present compound 30], in test [8], the pest or weed control at 200 ppm was ≥ 80%.
The compound `CCS(=O)(=O)c1cc(C(F)(F)F)cnc1-c1ccc(OCC(F)(F)C(F)F)nn1` [Present compound 31] registered a morality of insects in test [1] of 100%.
For the compound `CCS(=O)(=O)c1cccnc1-c1cc(C(F)(F)F)c(OCC(F)(F)C(F)F)nn1` [Present compound 33], the pest or weed control at 500 ppm is ≥ 80% in test [7] and ≥ 90% in test [4]. The pest or weed control at 200 ppm in test [8] was ≥ 80%.
As to `CCS(=O)(=O)c1cccnc1-c1cc(C(F)(F)F)c(OCC(F)(F)C(F)(F)F)nn1` [Present compound 34], the pest or weed control at 50 ppm in test [2] was ≥ 85%. The figures for the pest or weed control at 500 ppm in test [7] and in test [4] were ≥ 80% and ≥ 90%, respectively. In test [8], the pest or weed control at 200 ppm was ≥ 80%.
For `CCS(=O)(=O)c1cccnc1-c1cc(C)c(OCC(F)(F)C(F)F)nn1` [Present compound 35], the figures for the pest or weed control at 200 ppm in test [6], in test [3] and in test [8] were ≥ 90%, ≥ 90% and ≥ 80%, respectively. Also, the pest or weed control at 50 ppm in test [2] is ≥ 85%. For the same compound, the values for the pest or weed control at 500 ppm in test [7] and in test [4] were ≥ 80% and ≥ 90%, respectively. In test [1], this compound yielded a morality of insects of 100%.
As for `CCS(=O)(=O)c1cccnc1-c1cc(C)c(OCC(F)(F)C(F)(F)F)nn1` [Present compound 36], the pest or weed control at 200 ppm in test [6] is ≥ 90%; in test [3], ≥ 90%; in test [8], ≥ 80%. For the same compound, the pest or weed control at 500 ppm in test [7] was ≥ 80%; in test [4] it was ≥ 90%. In test [1], this compound returned a morality of insects of 100%.
As to `CC[S+]([O-])c1cccnc1-c1cc(C)c(OCC(F)(F)C(F)F)nn1` (stereo not drawn) [Present compound 37], the pest or weed control at 200 ppm in test [6] and in test [3] was ≥ 90% each time. Besides, the results for the pest or weed control at 500 ppm in test [7] and in test [4] were ≥ 80% and ≥ 90%, respectively. This compound gave a morality of insects in test [1] of 100%.
As for `CC[S+]([O-])c1cccnc1-c1cc(C)c(OCC(F)(F)C(F)(F)F)nn1` (stereo not drawn) [Present compound 38], the pest or weed control at 200 ppm in test [6] was ≥ 90%; in test [3], ≥ 90%; in test [8], ≥ 80%. In addition, the pest or weed control at 500 ppm in test [7] was ≥ 80%; in test [4] it was ≥ 90%. Also, the morality of insects in test [1] was 100%.
